Legend:
Assay type in all cases: functional
[1] = tested on: NCI-H460; assay: Cytotoxicity against human NCI-H460 cells assessed as growth inhibition at 0.1 ug/ml after 24 hrs by MTT assay; conditions: NCI-H460, 24 h, read-out: GI
[2] = Cytotoxicity against human HO8910 cells assessed as growth inhibition at 100 ug/ml after 24 hrs by MTT assay; conditions: HO-8910, 24 h, read-out: GI
[3] = Cytotoxicity against human HO8910 cells assessed as growth inhibition at 10 ug/ml after 24 hrs by MTT assay; conditions: HO-8910, 24 h, read-out: GI
[4] = Cytotoxicity against human HO8910 cells assessed as growth inhibition at 1 ug/ml after 24 hrs by MTT assay; conditions: HO-8910, 24 h, read-out: GI
[5] = tested on: KB; assay: Cytotoxicity against human KB cells assessed as growth inhibition at 100 ug/ml after 24 hrs by MTT assay; conditions: read-out: GI
[6] = tested on: KB; assay: Cytotoxicity against human KB cells assessed as growth inhibition at 10 ug/ml after 24 hrs by MTT assay; conditions: read-out: GI
[7] = tested on: KB; assay: Cytotoxicity against human KB cells assessed as growth inhibition at 1 ug/ml after 24 hrs by MTT assay; conditions: read-out: GI
[8] = tested on: Bel-7402; assay: Cytotoxicity against human Bel7402 cells assessed as growth inhibition at 100 ug/ml after 24 hrs by MTT assay; conditions: Bel-7402, 24 h, read-out: GI
[9] = tested on: Bel-7402; assay: Cytotoxicity against human Bel7402 cells assessed as growth inhibition at 10 ug/ml after 24 hrs by MTT assay; conditions: Bel-7402, 24 h, read-out: GI
[10] = tested on: Bel-7402; assay: Cytotoxicity against human Bel7402 cells assessed as growth inhibition at 1 ug/ml after 24 hrs by MTT assay; conditions: Bel-7402, 24 h, read-out: GI
[11] = tested on: Bel-7402; assay: Cytotoxicity against human Bel7402 cells assessed as growth inhibition at 0.1 ug/ml after 24 hrs by MTT assay; conditions: Bel-7402, 24 h, read-out: GI
[12] = tested on: NCI-H460; assay: Cytotoxicity against human NCI-H460 cells assessed as growth inhibition at 100 ug/ml after 24 hrs by MTT assay; conditions: NCI-H460, 24 h, read-out: GI
[13] = tested on: NCI-H460; assay: Cytotoxicity against human NCI-H460 cells assessed as growth inhibition at 10 ug/ml after 24 hrs by MTT assay; conditions: NCI-H460, 24 h, read-out: GI
[14] = tested on: NCI-H460; assay: Cytotoxicity against human NCI-H460 cells assessed as growth inhibition at 1 ug/ml after 24 hrs by MTT assay; conditions: NCI-H460, 24 h, read-out: GI
[15] = Cytotoxicity against human HO8910 cells assessed as growth inhibition at 0.1 ug/ml after 24 hrs by MTT assay; conditions: HO-8910, 24 h, read-out: GI
[16] = tested on: KB; assay: Cytotoxicity against human KB cells assessed as growth inhibition at 0.1 ug/ml after 24 hrs by MTT assay; conditions: read-out: GI

O=C(CCCCC(S)CCS)Nc1ccc([N+](=O)[O-])cc1 (configuration not stated)
inhibition of growth at 0.1 µg/mL [1]: 5.69% | inhibition of growth at 100 µg/mL [2]: 51.2% | inhibition of growth at 10 µg/mL [3]: 8.96% | inhibition of growth at 1 µg/mL [4]: 0.76% | inhibition of growth at 100 µg/mL [5]: 41.1% | inhibition of growth at 10 µg/mL [6]: 13.7% | inhibition of growth at 1 µg/mL [7]: 0.93% | inhibition of growth at 100 µg/mL [8]: 33.4% | inhibition of growth at 10 µg/mL [9]: 14.4% | inhibition of growth at 1 µg/mL [10]: 1.73% | inhibition of growth at 0.1 µg/mL [11]: 1.88% | inhibition of growth at 100 µg/mL [12]: 39.1% | inhibition of growth at 10 µg/mL [13]: 13.4% | inhibition of growth at 1 µg/mL [14]: 4.64%

CC(=O)SCCC(CCCCC(=O)Nc1ccccc1)SC(C)=O (configuration not stated)
inhibition of growth at 0.1 µg/mL [1]: 15.4% | inhibition of growth at 100 µg/mL [2]: 22.3% | inhibition of growth at 10 µg/mL [3]: 3.2% | inhibition of growth at 1 µg/mL [4]: 10.6% | inhibition of growth at 0.1 µg/mL [15]: 8.33% | inhibition of growth at 100 µg/mL [5]: 22.9% | inhibition of growth at 10 µg/mL [6]: 2.5% | inhibition of growth at 1 µg/mL [7]: 1.68% | inhibition of growth at 0.1 µg/mL [16]: 7.24% | inhibition of growth at 100 µg/mL [8]: 14.1% | inhibition of growth at 1 µg/mL [10]: 2.84% | inhibition of growth at 100 µg/mL [12]: 44.8% | inhibition of growth at 10 µg/mL [13]: 14.2% | inhibition of growth at 1 µg/mL [14]: 13.1%

O=C(CCCCC(S)CCS)Nc1ccc(Cl)cc1 (configuration not stated)
inhibition of growth at 100 µg/mL [2]: 21.3% | inhibition of growth at 1 µg/mL [4]: 2.81% | inhibition of growth at 0.1 µg/mL [15]: 1.04% | inhibition of growth at 100 µg/mL [5]: 44.1% | inhibition of growth at 10 µg/mL [6]: 18.2% | inhibition of growth at 1 µg/mL [7]: 13.3% | inhibition of growth at 0.1 µg/mL [16]: 9.11% | inhibition of growth at 100 µg/mL [8]: 25.5% | inhibition of growth at 10 µg/mL [9]: 1.16% | inhibition of growth at 1 µg/mL [10]: 0.27% | inhibition of growth at 0.1 µg/mL [11]: 1.06% | inhibition of growth at 100 µg/mL [12]: 40.9% | inhibition of growth at 10 µg/mL [13]: 21.9% | inhibition of growth at 1 µg/mL [14]: 6.76%

O=C(CCCCC1CCSS1)Nc1ccc(Br)cn1 (configuration not stated)
inhibition of growth at 0.1 µg/mL [1]: 9% | inhibition of growth at 100 µg/mL [2]: 32.1% | inhibition of growth at 10 µg/mL [3]: 29.6% | inhibition of growth at 1 µg/mL [4]: 4.27% | inhibition of growth at 100 µg/mL [5]: 42.3% | inhibition of growth at 10 µg/mL [6]: 35.1% | inhibition of growth at 1 µg/mL [7]: 4.33% | inhibition of growth at 100 µg/mL [8]: 45.5% | inhibition of growth at 10 µg/mL [9]: 24.5% | inhibition of growth at 1 µg/mL [10]: 13.1% | inhibition of growth at 100 µg/mL [12]: 52% | inhibition of growth at 10 µg/mL [13]: 38% | inhibition of growth at 1 µg/mL [14]: 13.1%

O=C(CCCCC(S)CCS)NO (configuration not stated)
inhibition of growth at 0.1 µg/mL [1]: 5.7% | inhibition of growth at 100 µg/mL [2]: 49.3% | inhibition of growth at 10 µg/mL [3]: 26.2% | inhibition of growth at 100 µg/mL [5]: 58% | inhibition of growth at 10 µg/mL [6]: 41.5% | inhibition of growth at 1 µg/mL [7]: 10.6% | inhibition of growth at 0.1 µg/mL [16]: 7.62% | inhibition of growth at 100 µg/mL [8]: 47.5% | inhibition of growth at 10 µg/mL [9]: 28.2% | inhibition of growth at 1 µg/mL [10]: 9.12% | inhibition of growth at 0.1 µg/mL [11]: 5.96% | inhibition of growth at 100 µg/mL [12]: 43.7% | inhibition of growth at 10 µg/mL [13]: 17.7% | inhibition of growth at 1 µg/mL [14]: 1.17%

O=C(CCCCC(CCSC(=O)c1ccccc1)SC(=O)c1ccccc1)Nc1ccc(Cl)cc1 (configuration not stated)
inhibition of growth at 0.1 µg/mL [1]: 9.36% | inhibition of growth at 1 µg/mL [4]: 1.29% | inhibition of growth at 0.1 µg/mL [15]: 3.68% | inhibition of growth at 100 µg/mL [5]: 5.78% | inhibition of growth at 10 µg/mL [6]: 10.6% | inhibition of growth at 1 µg/mL [7]: 11.7% | inhibition of growth at 0.1 µg/mL [16]: 16.9% | inhibition of growth at 10 µg/mL [9]: 4.87% | inhibition of growth at 1 µg/mL [10]: 9.62% | inhibition of growth at 0.1 µg/mL [11]: 9.2% | inhibition of growth at 10 µg/mL [13]: 12.6% | inhibition of growth at 1 µg/mL [14]: 9.8%

COc1ccc(NC(=O)CCCCC(S)CCS)cc1 (configuration not stated)
inhibition of growth at 0.1 µg/mL [1]: 5.69% | inhibition of growth at 100 µg/mL [2]: 12.6% | inhibition of growth at 10 µg/mL [3]: 4.14% | inhibition of growth at 1 µg/mL [4]: 1.79% | inhibition of growth at 100 µg/mL [5]: 22.2% | inhibition of growth at 10 µg/mL [6]: 8.93% | inhibition of growth at 1 µg/mL [7]: 2.49% | inhibition of growth at 100 µg/mL [8]: 22.5% | inhibition of growth at 10 µg/mL [9]: 10.4% | inhibition of growth at 1 µg/mL [10]: 3.96% | inhibition of growth at 0.1 µg/mL [11]: 5.35% | inhibition of growth at 100 µg/mL [12]: 23.5% | inhibition of growth at 10 µg/mL [13]: 1.43%

O=C(CCCCC(S)CCS)Nc1ccc(Br)cn1 (configuration not stated)
inhibition of growth at 0.1 µg/mL [1]: 6.4% | inhibition of growth at 100 µg/mL [2]: 56.8% | inhibition of growth at 10 µg/mL [3]: 29.4% | inhibition of growth at 1 µg/mL [4]: 2.51% | inhibition of growth at 100 µg/mL [5]: 59.2% | inhibition of growth at 10 µg/mL [6]: 34.1% | inhibition of growth at 1 µg/mL [7]: 2.51% | inhibition of growth at 100 µg/mL [8]: 41.1% | inhibition of growth at 10 µg/mL [9]: 23.2% | inhibition of growth at 1 µg/mL [10]: 4.71% | inhibition of growth at 100 µg/mL [12]: 55.9% | inhibition of growth at 10 µg/mL [13]: 39.2% | inhibition of growth at 1 µg/mL [14]: 10.7%
